Test results as given in patent US20260001928A1 (CORTERIA PHARMACEUTICALS, priority 2022, published 2026).
pEC50: −log10 of the molar value. *1 amine or outer side, *2 acyl side, *3 side chain or, on linkers, in order; H or OH if unused. Where a SMILES comes first, the peptide text is derived from it. Side-chain parts run from the residue outwards. [ ]: non-standard residue; d: D form. The star is where a group is joined. C20 diacid = O=C(O)CCCCCCCCCCCCCCCCCCC(=O)*; C18 diacid = O=C(O)CCCCCCCCCCCCCCCCC(=O)*; γGlu = O=C(O)[C@H](CCC(=O)[*:2])N[*:1]; Thp = NC1(C(=O)O)CCOCC1; Pentanoyl = CCCCC(=O)*; AEEA = NCCOCCOCC(=O)O; Aib = CC(C)(N)C(=O)O

Tests used:
human CRF2a receptor = target: T1, human CRF2a receptor (Homo sapiens, UniProt Q13324); experiment: Activity at human CRF2a receptor, cAMP functional assay in TeloHEAC cells; type: cell-based; conditions: TeloHEAC cells stably expressing human CRF2a receptor, relative to urocortin 2 (100 nM = 100%)
T1 construct: expressed in transfected cells; host or cells: TeloHEAC cells
T1 sequence (Q13324 1-411): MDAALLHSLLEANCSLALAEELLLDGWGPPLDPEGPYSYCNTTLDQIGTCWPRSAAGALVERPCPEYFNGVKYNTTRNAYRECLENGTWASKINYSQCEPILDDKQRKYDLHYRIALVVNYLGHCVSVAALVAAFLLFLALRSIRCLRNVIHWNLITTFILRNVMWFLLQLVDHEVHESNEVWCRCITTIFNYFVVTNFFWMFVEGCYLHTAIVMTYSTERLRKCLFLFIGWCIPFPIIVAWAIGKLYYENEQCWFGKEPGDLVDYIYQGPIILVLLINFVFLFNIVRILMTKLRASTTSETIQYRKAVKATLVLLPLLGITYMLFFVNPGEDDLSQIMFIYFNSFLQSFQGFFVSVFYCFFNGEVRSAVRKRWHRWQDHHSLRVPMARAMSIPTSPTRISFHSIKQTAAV
How it was run: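 TeloHEAC cells stably expressing human CRF2a (10000 cells/well) were treated with 16-point 1:2 compound dilutions in HBSS/20 mM HEPES with IBMX for 30 min at 37° C. cAMP was read by HTRF (665/620 nm ratio). EC50 was the concentration giving 50% activation, with 100 nM urocortin 2 set as 100%.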

CFR1R receptor = target: T2, CFR1R receptor (Homo sapiens, UniProt P34998); experiment: Activity at anti-target CFR1R receptor, cAMP assay in CRF1R-overexpression CHO-K1 cells; type: cell-based; conditions: 100% = Sauvagine at 100 nM; for pEC50: cAMP
T2 construct: host or cells: CHO-K1 (clone 2)
T2 sequence (P34998 24-415): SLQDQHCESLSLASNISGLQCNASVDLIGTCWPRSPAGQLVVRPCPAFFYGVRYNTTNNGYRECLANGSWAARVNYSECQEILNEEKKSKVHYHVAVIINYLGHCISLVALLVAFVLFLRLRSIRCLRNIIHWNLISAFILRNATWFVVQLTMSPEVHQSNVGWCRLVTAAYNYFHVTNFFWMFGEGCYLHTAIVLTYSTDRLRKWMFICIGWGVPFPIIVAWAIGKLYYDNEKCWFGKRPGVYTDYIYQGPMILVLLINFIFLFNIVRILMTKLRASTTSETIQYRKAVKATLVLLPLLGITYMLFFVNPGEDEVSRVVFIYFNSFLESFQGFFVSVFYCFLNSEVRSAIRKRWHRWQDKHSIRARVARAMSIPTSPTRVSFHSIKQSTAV
How it was run: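 Clone 2; cryopreserved stocks (10% DMSO); 4000 cells/well final; 100% activation = Sauvagine 100 nM; otherwise as TeloHAEC protocol.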

[1] = In vitro subcutaneous tissue supernatant (SCts) stability and metabolite identification, rat; type: in vitro ADME; parameters: remaining at 2 h: dose or concentration left out as unconfirmed; conditions: male, Sprague Dawley; rat subcutaneous tissue supernatant (SCts), 37° C, 2 h
[2] = Chemical stability in buffer (pH 7.4 / pH 4.5), % purity loss; type: physicochemical; conditions: 40° C. vs 5° C., 14 or 28 days; for Buffer stability pH 7.4 % purity loss: 100 mM phosphate buffer pH 7.4; for Buffer stability pH 4.5 % purity loss: 100 mM acetate buffer pH 4.5
How it was run: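 LC-UV gave % loss after 14 or 28 days of storage at 5 °C or 40 °C. Samples were diluted supernatants from compound incubated 1 h at room temperature at 10 mg/mL target, in 100 mM acetate pH 4.5 or 100 mM phosphate pH 7.4.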

Sprague Dawley rats = experiment: Effect on systolic blood pressure, telemetry in Sprague Dawley rats; type: in vivo, rat; conditions: 0.1 mg/kg SC; for Systolic blood pressure (Mean) % change from baseline, 8 h / Systolic blood pressure (Mean) % change from baseline, 12 h / Systolic blood pressure (Mean) % change from baseline, 24 h: n=2; for Duration of action: last time point with an effect on BP still observed
How it was run: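 Values are % change from a 1 h pre-dose baseline in systolic pressure, tracked by telemetry for up to 48 hours after a single 0.1 mg/kg subcutaneous dose. Rats (Sprague Dawley, n=2 per peptide) carried aortic catheters and recovered at least 10 days post-surgery; duration of action marks the last time point still showing an effect.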

[3] = Pharmacokinetics in male Sprague Dawley rats after subcutaneous administration; type: in vivo; conditions: plasma, rat, IV, 0.05 mg/kg

pEC50 (human CRF2a receptor)	Emax (% I) (CFR1R receptor)	pEC50 (CFR1R receptor)	remaining at 2 h [1] [%]	Buffer stability pH 7.4 % purity loss [2]	AUC(0-t) [3] [ng·h/mL]	half-life [3] [h]	Buffer stability pH 4.5 % purity loss [2]	Structure (SMILES)	Systolic blood pressure (Mean) % change from baseline, 8 h (Sprague Dawley rats) [%]	Systolic blood pressure (Mean) % change from baseline, 12 h (Sprague Dawley rats) [%]	Systolic blood pressure (Mean) % change from baseline, 24 h (Sprague Dawley rats) [%]	Duration of action (Sprague Dawley rats) [h]
9.54	9	< 6.60	67	0.0/Not Tested %	5040	7.5		CC[C@H](C)[C@H](NC(C)=O)C(=O)N[C@H](C(=O)N[C@@H](CC(C)C)C(=O)N[C@@H](CO)C(=O)N[C@@H](CC(C)C)C(=O)N[C@@H](CC(=O)O)C(=O)N[C@@H](C(=O)N1CCC[C@H]1C(=O)N[C@H](C(=O)N[C@@H](CCCCN)C(=O)N[C@@H](CC(C)C)C(=O)N[C@@H](CCCCNC(=O)CC[C@H](NC(=O)CCCCCCCCCCCCCCCCC(=O)O)C(=O)O)C(=O)N[C@@H](CCCCN)C(=O)N[C@H](C(=O)N[C@@H](CC(C)C)C(=O)N[C@@H](CC(C)C)C(=O)N[C@@H](CCC(=O)O)C(=O)N[C@@H](CCC(N)=O)C(=O)N[C@@H](CCC(=O)O)C(=O)N[C@@H](CCCCN)C(=O)N[C@@H](CCC(N)=O)C(=O)N[C@@H](CCCCN)C(=O)N[C@@H](C)C(=O)N[C@@H](CCC(N)=O)C(=O)N[C@@H](CCCNC(=N)N)C(=O)N[C@@H](CCC(=O)O)C(=O)N[C@@H](CCC(N)=O)C(=O)N[C@@H](C)C(=O)N[C@@H](CCC(=O)O)C(=O)N[C@H](C(=O)N[C@@H](CC(N)=O)C(=O)NC(C)(C)C(=O)N[C@@H](CCC(N)=O)C(=O)N[C@H](C(=O)N[C@@H](CC(C)C)C(=O)N[C@@H](C)C(=O)N[C@@H](CCC(N)=O)C(=O)N[C@H](C(N)=O)C(C)C)[C@@H](C)CC)[C@@H](C)O)[C@@H](C)CC)[C@@H](C)CC)C(C)C)C(C)C [compound 189] (Ac-IVLSLD[dV]PIKLK([γGlu-C18 diacid])KILLEQEKQKAQREQAETN[Aib]QILAQV-NH2)	−27	−25	−13	>24
9.77	20	< 6.60	56	0.0/Not Tested %	2340	4.9		CCCCC(=O)N[C@H](C(=O)N[C@@H](CC(C)C)C(=O)N[C@@H](CO)C(=O)N[C@@H](CC(C)C)C(=O)N[C@@H](CC(=O)O)C(=O)N[C@@H](C(=O)N1CCC[C@H]1C(=O)N[C@H](C(=O)N[C@@H](CCCCN)C(=O)N[C@@H](CC(C)C)C(=O)N[C@@H](CCCCNC(=O)CC[C@H](NC(=O)CCCCCCCCCCCCCCCCC(=O)O)C(=O)O)C(=O)N[C@@H](CCCCN)C(=O)N[C@H](C(=O)N[C@@H](CC(C)C)C(=O)N[C@@H](CC(C)C)C(=O)N[C@@H](CCC(=O)O)C(=O)N[C@@H](CCC(N)=O)C(=O)N[C@@H](CCC(=O)O)C(=O)N[C@@H](CCCCN)C(=O)N[C@@H](CCC(N)=O)C(=O)N[C@@H](CCCCN)C(=O)N[C@@H](CCCCN)C(=O)N[C@@H](CCC(N)=O)C(=O)N[C@@H](CCCNC(=N)N)C(=O)N[C@@H](CCC(=O)O)C(=O)N[C@@H](CCC(N)=O)C(=O)N[C@@H](C)C(=O)N[C@@H](CCC(=O)O)C(=O)N[C@H](C(=O)N[C@@H](CC(N)=O)C(=O)NC(C)(C)C(=O)N[C@@H](CCC(N)=O)C(=O)N[C@H](C(=O)N[C@@H](CC(C)C)C(=O)N[C@@H](C)C(=O)N[C@@H](CCC(N)=O)C(=O)N[C@H](C(N)=O)C(C)C)[C@@H](C)CC)[C@@H](C)O)[C@@H](C)CC)[C@@H](C)CC)C(C)C)C(C)C [compound 193] (Pentanoyl-VLSLD[dV]PIKLK([γGlu-C18 diacid])KILLEQEKQKKQREQAETN[Aib]QILAQV-NH2)	−20	−12	−8	>24
9.37	3	< 6.60	65	0.0/0.0 ^ %	4860	6.2	0.0/0.0 ^ %	CC[C@H](C)[C@H](NC(C)=O)C(=O)N[C@H](C(=O)N[C@@H](CC(C)C)C(=O)N[C@@H](CO)C(=O)N[C@@H](CC(C)C)C(=O)N[C@@H](CC(=O)O)C(=O)N[C@@H](C(=O)N1CCC[C@H]1C(=O)N[C@H](C(=O)N[C@@H](CCCCN)C(=O)N[C@@H](CC(C)C)C(=O)N[C@@H](CCCCNC(=O)COCCOCCNC(=O)CC[C@H](NC(=O)CCCCCCCCCCCCCCCCC(=O)O)C(=O)O)C(=O)N[C@@H](CCCCN)C(=O)N[C@H](C(=O)N[C@@H](CC(C)C)C(=O)N[C@@H](CC(C)C)C(=O)N[C@@H](CCC(=O)O)C(=O)N[C@@H](CCC(N)=O)C(=O)N[C@@H](CCC(=O)O)C(=O)N[C@@H](CCCCN)C(=O)N[C@@H](CCC(N)=O)C(=O)N[C@@H](CCCCN)C(=O)N[C@@H](CCCCN)C(=O)N[C@@H](CCC(N)=O)C(=O)N[C@@H](CCCNC(=N)N)C(=O)N[C@@H](CCC(=O)O)C(=O)N[C@@H](CCC(N)=O)C(=O)N[C@@H](C)C(=O)N[C@@H](CCC(=O)O)C(=O)N[C@H](C(=O)N[C@@H](CC(N)=O)C(=O)NC(C)(C)C(=O)N[C@@H](CCC(N)=O)C(=O)N[C@H](C(=O)N[C@@H](CC(C)C)C(=O)N[C@@H](C)C(=O)N[C@@H](CCC(N)=O)C(=O)N[C@H](C(N)=O)C(C)C)[C@@H](C)CC)[C@@H](C)O)[C@@H](C)CC)[C@@H](C)CC)C(C)C)C(C)C [compound 203] (Ac-IVLSLD[dV]PIKLK([AEEA-γGlu-C18 diacid])KILLEQEKQKKQREQAETN[Aib]QILAQV-NH2)	−18	−11	2	23
			72	0.0/0.0 ^ %	7780	8.4	0.0/0.0 ^ %	CC[C@H](C)[C@H](NC(C)=O)C(=O)N[C@H](C(=O)N[C@@H](CC(C)C)C(=O)N[C@@H](CO)C(=O)N[C@@H](CC(C)C)C(=O)N[C@@H](CC(=O)O)C(=O)N[C@@H](C(=O)N1CCC[C@H]1C(=O)N[C@H](C(=O)N[C@@H](CCCCN)C(=O)N[C@@H](CC(C)C)C(=O)N[C@@H](CCCCNC(=O)CC[C@H](NC(=O)CCCCCCCCCCCCCCCCCCC(=O)O)C(=O)O)C(=O)N[C@@H](CCCCN)C(=O)N[C@H](C(=O)N[C@@H](CC(C)C)C(=O)N[C@@H](CC(C)C)C(=O)N[C@@H](CCC(=O)O)C(=O)N[C@@H](CCC(N)=O)C(=O)N[C@@H](CCC(=O)O)C(=O)N[C@@H](CCCCN)C(=O)N[C@@H](CCC(N)=O)C(=O)N[C@@H](CCCCN)C(=O)N[C@@H](CCCCN)C(=O)N[C@@H](CCC(N)=O)C(=O)N[C@@H](CCCNC(=N)N)C(=O)N[C@@H](CCC(=O)O)C(=O)N[C@@H](CCC(N)=O)C(=O)N[C@@H](C)C(=O)N[C@@H](CCC(=O)O)C(=O)N[C@H](C(=O)N[C@@H](CC(N)=O)C(=O)NC1(C(=O)N[C@@H](CCC(N)=O)C(=O)N[C@H](C(=O)N[C@@H](CC(C)C)C(=O)N[C@@H](C)C(=O)N[C@@H](CCC(N)=O)C(=O)N[C@H](C(N)=O)C(C)C)[C@@H](C)CC)CCOCC1)[C@@H](C)O)[C@@H](C)CC)[C@@H](C)CC)C(C)C)C(C)C [compound 210] (Ac-IVLSLD[dV]PIKLK([γGlu-C20 diacid])KILLEQEKQKKQREQAETN[Thp]QILAQV-NH2)	−13	−13	−6	>24
